The results in this text go back to a melting point compilation (Tetko et al.; mined from patent text by program, amines drawn as free bases though some values may be those of a salt).

Molecule `c1cc(-n2ccnc2)cc(-n2cnc3cc(-c4ccon4)ccc32)c1` gave a melting point of 230 to 234 °C.

For the molecule `Cc1cc(C)nc(NC(=O)C(N)CC(C)C)c1` (stereo not given), the melting point was found to be 78 °C. The molecule `Cc1ccc(Cc2nc3cc(Cl)c(S(N)(=O)=O)cc3[nH]2)cc1` came in with a melting point of 214 to 217 °C. `O=Cc1ccc(-c2cnco2)[nH]1` yielded a melting point of 152 to 153 °C. As for `Cc1ccccc1C(=O)c1cccn1C`, the melting point fell in the range of 90 to 92.5 °C. `COC(=O)c1ccc(NN2C(=O)C(C)=C(C)C2=O)cc1C(=O)Nc1nc(OC)nc(OC)n1` gave a melting point of 123 to 127 °C. In the case of `CCOCc1cc2cc(Cl)ccc2oc1=Nc1ccccc1`, the melting point was 58 to 59 °C. The result for `CCCOc1ccc(CCCOc2nn(Cc3ccccc3)cc2CC(=O)O)c(Oc2ncc(C(F)(F)F)cc2Cl)c1` reads 96.5 to 97.5 °C; that for `O=C1c2ccccc2C(=O)N1Cc1ccc(/C=C/C(c2cc(Cl)c(Cl)c(Cl)c2)C(F)(F)F)c2ccccc12` (stereo not given), 158 to 160 °C. To `O=C(O)c1ccc(F)c(C(F)(F)F)c1F` belongs 108 to 110 °C. To `Cc1cc(-c2nnc3c4ccccc4c(OCc4ncn(C(C)C)n4)nn23)no1` belongs 179 to 181 °C; to `CC1CC(=O)NN=C1c1ccc(NC2=CC(=O)CC2)cc1` (stereo not given), above 300 °C; to `COc1ccc(NC(=O)c2ccc(F)c(F)c2)cc1NS(=O)(=O)c1ccc(C#N)cc1`, 255 to 257 °C. Consider `CCOP(=O)(NCC(=O)OCc1ccccc1)C1CC(c2ccccc2)=NO1` (stereo not given), for which the melting point was in the range of 91 to 103 °C. With `COC(=O)N(c1cc(C)ccc1C#N)C(C)C`, the melting point lay in the range of 100 to 101 °C. For the molecule `COc1ccccc1SCC(=O)NCCCCCC(=O)O`, the melting point fell in the range of 95 to 97 °C. With `O=C1NC(=O)C2(N1)C(=O)N(Cc1ccc(Cl)c(Cl)c1)c1ccccc12` (stereo not given), the melting point lay in the range of 269 to 271 °C.

In turn, `O=C(O)CCCOc1cccc(OCc2ccccc2)c1` registered a melting point of 76 to 77 °C. Regarding `CCn1nc(-c2nc(C(N)=O)c(N)nc2-c2ccccc2)ccc1=O`, the melting point was above 250 °C. The result for `O=C1C=C2CCCCC2N1c1ccc(OCCN2CCOCC2)cc1` (stereo not given) reads 96 °C.

For `O=C(Nc1cnccn1)Nc1cccc2c1C1C[C@@H](O)CCN1C2=O` (stereo not given in full), the melting point came out at 250 °C. With `CC[C@H](COC)n1cc(Br)nc(N2CCc3cc(OC)cc(Br)c32)c1=O`, the melting point is 122 to 123 °C. The molecule `O=C1Nc2cccc(Cl)c2C(=O)N2CC[C@@H]12` showed a melting point of 225 to 228 °C. Take `Cc1ncoc1C(C)(O)c1ccccc1C(F)(F)F` (stereo not given): the melting point is 108 to 109 °C. Regarding `COC(=O)c1cc(NC(C)=O)ccc1OC`, the melting point is 132 to 134 °C. As for `CCOC(=O)CCc1cc(-c2cc3ccccc3c(=O)o2)ccc1O`, the melting point is 179 to 180 °C. As for `Cc1cccc(C(=O)Nc2c[nH]nc2C(=O)NCC(C)(C)C#N)n1`, the melting point was 250 to 251 °C. In the case of `CC(C)(C)OC(=O)NC(C(=O)NOC(c1ccccc1)(c1ccccc1)c1ccccc1)C1(O)CCSC1` (stereo not given), the melting point lay within 220 to 225 °C. The molecule `COc1ccc(NC(=O)C(C)(C)c2ccc(S(=O)(=O)/C=C/C#N)cc2)cc1` registered a melting point of 123 to 126 °C. To `CCOC(=O)C(C(=O)OCC)c1c(Br)cnc2c([N+](=O)[O-])cccc12` belongs 94 to 95 °C; to `CCn1c(=O)c2c(nc(/C=C/c3ccc(OCCCCBr)cc3)n2C)n(CC)c1=O`, 175 to 176 °C.

The molecule `COC(=O)COc1ccc(O)c(C(C)(C)C)c1` returned a melting point of 87 to 89 °C. To `CCc1ncnc(NC(C)c2ccc([Si](C)(C)C)cc2)c1Cl` (stereo not given) belongs 79 to 80 °C; to `Nc1ccccc1-c1nc(CCS(=O)(=O)CCO)no1`, 118 to 119 °C; to `O=c1c2cc(CBr)ccc2oc2ncccc12`, 211 to 212 °C.

Turning to `O=Cc1cc(F)cc(Br)c1F`, the melting point fell in the range of 36 to 38 °C.

Turning to `CCCCC(CC)COc1c(-c2ccc(S(C)(=O)=O)cc2)cnn(-c2ccc(F)cc2)c1=O` (stereo not given), the melting point lay within 120 to 122 °C.

Molecule `CCC1c2c(C#N)ncn2-c2cnc(Nc3ccc(C(=O)NC4CCN(C5CCN(CC(C)C)CC5)CC4)cc3OC)nc2N1C(C)C` (stereo not given) showed a melting point of 165 to 170 °C.

`C[C@]1(COc2ccc(N3CCN(Cc4ccc(N5CCC(Oc6ccc(OC(F)(F)F)cc6)CC5)cc4)CC3)cc2)Cn2cc([N+](=O)[O-])nc2O1` yielded a melting point of 198 to 201 °C.

For the molecule `CN1NC(=O)C2C(C1=O)C2(C)C` (stereo not given), the melting point lay within 151 to 154 °C. The result for `CCCOC(=O)Oc1ccc(-c2ccc(C#N)cc2)cc1` reads 70.2 to 70.9 °C; that for `CC(C)(C)N(O)C(=O)C1CCC(C2CCCCC2)CC1` (stereo not given), 119 to 120 °C. On to `N#Cc1cc(Oc2ccccc2)ccc1O`, for which the melting point lay in the range of 112 to 114 °C.

For the molecule `CC(C)n1cnc2c(N[C@H](CO)c3ccccc3)nc(NC[C@@H](C)O)nc21`, the melting point lay in the range of 109 to 112 °C.

The molecule `COc1cc2ncc(C#N)c(Nc3ccc4cn[nH]c4c3)c2cc1OC` gave a melting point of 180 to 183 °C. Consider `COc1ccc(S(=O)(=O)N2CC3CCC(C3)C2)c2ccccc12`, for which the melting point lay in the range of 136 to 139 °C. For `Nc1nc(-c2ccco2)c(N2CCOCC2)s1`, the melting point was in the range of 285 to 288 °C.

Regarding `CC(O)C1(c2cccc(Cl)c2)CCCN(C)CC1` (stereo not given), the melting point was in the range of 123 to 124 °C.

Regarding `CS(=O)(=O)c1ccc(-c2ccc(N=[N+]=[N-])nc2-c2ccc(F)cc2)cc1`, the melting point turned out to be 229 °C.

Molecule `CC(C)(C)c1ccc(C(=O)Nc2cn3cc(-c4ccoc4)ccc3n2)cc1` gave a melting point of 258 to 259 °C. For `CCOC(=O)CCCN1C(=O)N(c2ccc(C#N)c(C(F)(F)F)c2)C(=O)C12CCOCC2`, the melting point lay within 129 to 130 °C. The result for `CCCCCC(NS(=O)(=O)c1ccc(Cl)cc1)c1ccc(CCCC(=O)O)cc1` (single isomer, unassigned; (-)) reads 134 to 137 °C; that for `COCc1cc(C(=O)NC(C)(C)C)c(C(=O)OC)cn1`, 138 to 142 °C; that for `CCCOc1cc(OCCC)c2c(=O)c(OCCC)c(-c3ccccc3)oc2c1`, 90 to 93 °C. On to `CCS(=O)(=O)Cc1c(Cl)c(Cl)cc2nc(OC)c(OC)nc12`, for which the melting point lay within 150 to 152 °C. `c1ccc2sc(-c3ccnc(Nc4ccc5c(c4)OCCO5)c3)cc2c1` showed a melting point of 154 °C. `CS(=O)(=O)Nc1nc(-c2ccc(NS(C)(=O)=O)c(Sc3ccc(F)cc3F)c2)cs1` came in with a melting point of 159 to 161 °C.

In turn, `N#CC(C=N)CC(=O)c1ccc2ccccc2c1` (stereo not given) gave a melting point of 154 to 157 °C. `COc1cc(OC)cc(-c2cc(=O)c3ccc(OCCCBr)cc3o2)c1` had a melting point of 173 to 174 °C. As to `CCS(=O)(=O)N1CCSc2ccccc2C1`, the melting point fell in the range of 78 to 80 °C. `C[Si](C)(C)CCCCCC1=C(O)C(=O)c2ccccc2C1=O` displayed a melting point of 73 to 75 °C. Take `N#CCC(CC#N)c1cccc(OCc2ccccc2)c1`: the melting point lay in the range of 140 to 143 °C. In turn, `CCOC(=O)CNc1cc(F)ccc1[N+](=O)[O-]` had a melting point of 194 to 195 °C. In the case of `O=C(O)c1ccc(OC(=O)c2ccc(O)c(C34CC5CC(CC(C5)C3)C4)c2)cc1`, the melting point was 269 to 271 °C. To `N=C(NCc1cccc(F)c1)N[N+](=O)[O-]` belongs 177 to 179 °C. `O=C(Oc1ccc(F)cc1)c1ccccc1` gave a melting point of 48 to 50 °C.

`CCCc1c2c(c(N)c3c(=O)cc(C(=O)OCC)oc13)CC(C(=O)OCC)CC2` (stereo not given) displayed a melting point of 102 to 103 °C. To `O=C(O)CCCCCNC(=O)S[C@@H]1CC(=O)N(Cc2ccc(Oc3ccc(F)cc3)nc2)C1` belongs 129 to 130 °C; to `Cc1cc(SCc2ccc(OCc3ccc(F)cc3)cc2)ccc1OCC(=O)O`, 154 to 155 °C; to `O=C1CCC2(N1)C1C=CC(C1)C2c1ccccc1` (stereo not given), 152 to 155 °C. Molecule `CC(C)(C)NCC(O)COc1ccc2c(=O)cc(-c3cc(O)cc(O)c3)oc2c1` (stereo not given) yielded a melting point of 153 °C. `O=C(O)c1ccc(C(=O)/C=C/c2ccc(F)c(-c3cccs3)c2)cc1` displayed a melting point of 242 to 244 °C. To `CC(C)(CCCCCCCC(=O)CCCCCCCC(C)(C)C(=O)O)C(=O)O` belongs 74 to 77 °C.

The molecule `O=[N+]([O-])c1ccc(CSC(=S)N2Cc3[nH]c4ccccc4c3CC2CO)cc1` (stereo not given) gave a melting point of 193 to 194 °C. In turn, `CC1(C)C(C(=O)O)C1C(OS(C)(=O)=O)C(Br)(Br)Br` (stereo not given) had a melting point of 168 °C.

Take `CCNC(=S)NC1CCCc2ccccc21` (stereo not given): the melting point fell in the range of 120 to 122 °C. Take `COCc1c(-c2ccccc2)ncc2[nH]c3ccc(OCc4ccccc4)cc3c12`: the melting point fell in the range of 189 to 191 °C. The result for `COc1cccc2c1CCCC2N` (stereo not given) reads 22 to 25 °C; that for `Cc1cn(-c2cccc(C(=O)CC(=O)Nc3cc(C#Cc4ccc(F)cc4)ccc3NC(=O)OC(C)(C)C)c2)cn1`, 166 °C; that for `CC(C)c1nc(CN)n(C)c1Sc1cccc([N+](=O)[O-])c1`, 77 to 78 °C.

Consider `COc1cc2c(cc1OCc1ccccc1)C(c1ccccc1)=NCC2`, for which the melting point was in the range of 134 to 137 °C. The result for `NC(=O)c1[nH]c2ccccc2c1-c1ccc(NC(=O)Nc2cccc(C(F)(F)F)c2)cc1` reads 156 to 158 °C.

The molecule `CSCc1c(C(=O)NN2CCCCC2)nn(-c2ccc(Cl)cc2Cl)c1-c1ccc(Cl)cc1` displayed a melting point of 183 °C.

As to `COc1ccc(C(=O)OCc2ccccc2)cc1NC(=S)Nc1cc(Cl)cc(Cl)c1`, the melting point lay in the range of 144 to 145 °C. Consider `Cc1cc(C)n(-c2nc(Nc3ccc(I)cc3)c3ccccc3n2)n1`, for which the melting point lay in the range of 226 to 229 °C. `Cc1ccc(-c2cn(C)cc(-c3ccccc3C)c2=O)cc1` displayed a melting point of 151 to 154 °C. The molecule `CC(=O)OCc1ccccc1S(N)(=O)=O` came in with a melting point of 131 to 133 °C. The result for `CC1(C)Oc2ccc([N+](=O)[O-])cc2C=C1CBr` reads 107 °C; that for `O=C(NCc1ccccn1)c1cc2ccnc(Cl)c2[nH]1`, 177 to 183 °C; that for `CCCCc1nc2ccn(Cc3ccccc3C(=O)OCC)c(=O)c2n1Cc1ccc(-c2ccccc2-c2nnn[nH]2)cc1`, 203 to 204 °C.

What is called melting point is the temperature, or range, at which the solid turns liquid.
